This is an account of results in ChEMBL document CHEMBL4177612, “Discovery of tranylcypromine analogs with an acylhydrazone substituent as LSD1 inactivators: Design, synthesis and their biological evaluation” (Bioorg Med Chem Lett, 2017).

Common to all, as to type: functional, cell-based
Assay [1] has as its system MGC-803. The experiment in a line: Antiinvasive activity against human MGC803 cells at 0.25 to 1 uM after 24 hrs by DAPI staining based matrigel coated transwell assay.
Assay [2] deals with MGC-803. The experiment in a line: Effect on LSD1 level in human MGC803 cells at 1 to 4 uM after 4 days by immunofluorescence analysis.
For assay [3], the system named is MGC-803. Nature of the assay: Anti-migratory activity against human MGC803 cells after 24 hrs by DAPI staining based transwell assay.

SMILES strings stand for the structures. Activity calls are given as the source filed them. The calls are words filed in the database; no cut-off is given here.

On to `CCN(CC)c1ccc(/C=N/NC(=O)CN[C@@H]2C[C@H]2c2ccc(F)c(F)c2)c(O)c1`, for which the result with MGC-803 [1] was Active. Besides, the outcome with MGC-803 [2] was inactive. The Activity entry in the assay on MGC-803 [3] is “Dose-dependent effect”.
